Experimental data published in patent publication US9758526B2, “Quinoline-substituted compound” (TAIHO PHARMACEUTICAL CO., LTD., priority 2013, dated 2017).

What was measured:
EGFR (T790M/L858R) = molecular target: T1, EGFR (T790M/L858R) (Homo sapiens, UniProt P00533, L858R/T790M); test: EGFR (T790M/L858R) kinase inhibitory activity; format: biochemical; settings: ATP 1 μM, 25° C. for 120 minutes
T1 construct: purchased Carna Biosciences, Inc
Method: The inhibitory activities of the compounds of the present invention against EGFR (T790M/L858R) kinase activity were measured.
(§1) Among the materials of the inhibitory activity measurement, the substrate peptide and the kinase protein were obtained as follows. A peptide with biotinylated N-terminus (biotin-EEPLYWSFPAKKK) was synthesized with reference to FL-Peptide 22, a reagent for LabChip® series of PerkinElmer, Inc. For the kinase protein, a purified recombinant human EGFR (T790M/L858R) protein of Carna Biosciences, Inc. was purchased.
(§2) The inhibitory activity measurement was performed as follows. The compounds of the present invention were individually dissolved in dimethyl sulfoxide (DMSO), and serial dilutions of these compounds were prepared using DMSO. Subsequently, a solution containing the substrate peptide (final concentration: 250 nM), magnesium chloride (final concentration: 10 mM), manganese chloride (final concentration: 10 mM), and ATP (final concentration: 1 μM) in a buffer solution for kinase reaction (Carna Biosciences, Inc.) was mixed with the dilutions of the compounds (final concentration of DMSO upon kinase reaction: 2.5%) or DMSO (final concentration: 2.5%). EGFR (T790M/L858R) protein was further added thereto, and the mixtures were incubated at 25° C. for 120 minutes to carry out a kinase reaction. EDTA was added thereto to a final concentration of 24 mM to thereby terminate the reaction. A phosphorylated thyrosine detection solution containing europium (Eu)-labeled anti-phosphorylated tyrosine antibody PT66 (PerkinElmer, Inc.) and SureLight APC-SA (PerkinElmer, Inc.) was added to the reaction mixtures, and the mixtures were allowed to stand at room temperature for 2 hours or more. For the background, a sample to which EDTA was added before addition of EGFR (T790M/L858R) protein was incubated at 25° C. for 120 minutes, using DMSO instead of the DMSO solution of the compound. The detection solution was also added to this sample, and the mixture was allowed to stand for 2 hours or more. Finally, for all of the test samples, the amount of fluorescence at the time of irradiation of excitation light having a wavelength of 337 nm was measured at dual wavelengths of 620 nm and 665 nm by PHERAstar FS (BMG LABTECH), and a ratio of the fluorescence amounts at the two wavelengths was obtained as data.
(§3) Based on the above rates, phosphorylation inhibition rates (%) were calculated for the samples to which various concentrations of the compound solutions were added. Finally, the obtained reaction inhibition rates (%) at the respective concentrations were plotted for each compound, and the IC50 value (nM), which is a compound concentration at which phosphorylation by EGFR (T790M/L858R) is inhibited by 50%, was determined using XLfit curve-fitting software (IDBS).

EGFR (d746-750/T790M) = molecular target: T2, EGFR (d746-750/T790M) (Homo sapiens, UniProt P00533, DEL746-750/T790M); test: EGFR (d746-750/T790M) kinase inhibitory activity; format: biochemical; settings: ATP 1.5 μM
T2 construct: purchased Carna Biosciences, Inc
Method: as §1, §2, §3
The inhibitory activities of the compounds of the present invention against EGFR (d746-750/T790M) kinase activity were measured.
The materials, the measurement method, and the data analysis method were substantially the same as those shown in the above description regarding “Measurement of EGFR (T790M/L858R) Kinase Inhibitory Activity,” except that a purified recombinant human EGFR (d746-750/T790M) protein purchased from Carna Biosciences, Inc. was used as the kinase protein, and the measurement was performed with an ATP final concentration of 1.5 μM. Finally, the IC50 value (nM) of each compound with respect to EGFR (d746-750/T790M) was determined by data analysis.

EGFR (L858R) = molecular target: T3, EGFR (L858R) (Homo sapiens, UniProt P00533, L858R); test: EGFR (L858R) kinase inhibitory activity; format: biochemical; settings: ATP 4 μM
T3 construct: purchased Carna Biosciences, Inc
Method: as §1, §2, §3
The inhibitory activities of the compounds of the present invention against EGFR (L858R) kinase activity were measured.
The materials, the measurement method, and the data analysis method were substantially the same as those shown in the above description regarding “Measurement of EGFR (T790M/L858R) Kinase Inhibitory Activity,” except that a purified recombinant human EGFR (L858R) protein purchased from Carna Biosciences, Inc. was used as the kinase protein, and the measurement was performed with ATP at a final concentration of 4 μM. Finally, the IC50 value (nM) of each compound with respect to EGFR (L858R) was determined by data analysis.

EGFR (d746-750) = molecular target: T4, EGFR (d746-750) (Homo sapiens, UniProt P00533, DEL746-750); test: EGFR (d746-750) kinase inhibitory activity; format: biochemical; settings: ATP 5 μM, kinase reaction 90 minutes
T4 construct: purchased Carna Biosciences, Inc
Method: as §1, §2, §3
The inhibitory activities of the compounds of the present invention against EGFR (d746-750) kinase activity were measured.
The materials, the measurement method, and the data analysis method were substantially the same as those shown in the above description regarding “Measurement of EGFR (T790M/L858R) Kinase Inhibitory Activity,” except that a purified recombinant human EGFR (d746-750) protein purchased from Carna Biosciences, Inc. was used as the kinase protein, the measurement was performed with ATP at a final concentration of 5 μM, and the incubation for the kinase reaction was performed for 90 minutes. Finally, the IC50 value (nM) of each compound with respect to EGFR (d746-750) was determined by data analysis.

EGFR (WT) = molecular target: T5, EGFR (WT) (Homo sapiens, UniProt P00533); test: EGFR (WT) kinase inhibitory activity; format: biochemical; settings: substrate peptide 500 nM
T5 construct: expressing a cytoplasmic domain of human EGFR (WT) with its N-terminus fused to a FLAG tag; FLAG (N); made in house; host or cells: insect Sf9 cells, baculovirus expression system
Method: as §1, §2, §3
The inhibitory activities of the compounds of the present invention against EGFR (WT) kinase activity were measured.
The materials, the measurement method, and the data analysis method were substantially the same as those shown in the above description regarding “Measurement of EGFR (T790M/L858R) Kinase Inhibitory Activity,” except that a kinase protein prepared by expressing a cytoplasmic domain of human EGFR (WT) with its N-terminus fused to a FLAG tag in insect Sf9 cells using a baculovirus expression system and then purifying it with anti-FLAG antibody agarose (Sigma-Aldrich) was used as the kinase protein, the final concentration of the substrate peptide was 500 nM, and the final concentration of ATP was […]. Finally, the IC50 value (nM) of each compound with respect to EGFR (WT) was determined by data analysis.

[1] = tested on: NCI-H1975 expressing EGFR (T790M/L858R); test: Growth inhibition, NCI-H1975 expressing EGFR (T790M/L858R); format: cell-based; settings: Homo sapiens, NCI-H1975, 72 h; cultured three days, CellTiter-Glo
Method: (§4) (1) A human […] lung cancer cell line NCI-H1975 expressing EGFR (T790M/L858R), (2) a human non-small cell lung cancer cell line HCC827 expressing EGFR (d746-750), and (3) a human epithelioid cancer cell line A431 expressing EGFR (WT) were each suspended in complete growth medium recommended by ATCC. The cell suspensions were seeded in each well of a 384-well flat microplate or a 96-well flat plate, and cultured in an incubator containing 5% carbon dioxide gas at 37° C. for one day. Each compound of the present invention was dissolved in DMSO, and serial dilutions of the test compound were prepared using DMSO (to a concentration 500 times the final concentration). The DMSO solution of the test compound or DMSO was diluted with complete growth medium, and the resulting solution was added to each well of the cell culture plate so that the final concentration of DMSO was 0.2%. Then, the cells were cultured in an incubator containing 5% carbon dioxide gas at 37° C. for three days. The number of cells was measured before the addition of the DMSO solution of the test compound, as well as after addition and culture by using a CellTiter-Glo Assay® (produced by Promega) according to a protocol recommended by Promega.
(§5) For each cell, the cell growth inhibition rates of the wells to which the test compounds at various concentrations were added were calculated by the following formula. Then, the obtained inhibition rates (%) at the respective concentrations were plotted for each test compound, and the GI50 value (nM), which is a test compound concentration at which the cell growth can be inhibited by 50%, was determined using XLfit curve-fitting software (IDBS). • Cell Growth Inhibition Rate (%)=(C−T)/(C−CO)×100 • T: Luminescence intensity of well cultured for three days after addition of the test compound solution • C: Luminescence intensity of well cultured for three days after addition of DMSO • C0: Luminescence intensity of well before addition of the test compound solution

[2] = tested on: HCC827 expressing EGFR (d746-750); test: Growth inhibition, HCC827 expressing EGFR (d746-750); format: cell-based; settings: Homo sapiens, HCC827, 72 h; cultured three days, CellTiter-Glo
Method: as §4, §5

[3] = tested on: A431 expressing EGFR (WT); test: Growth inhibition, A431 expressing EGFR (WT); format: cell-based; settings: Homo sapiens, A-431, 72 h; cultured three days, CellTiter-Glo
Method: as §4, §5

T5 sequence (P00533 669-1210 limits assumed): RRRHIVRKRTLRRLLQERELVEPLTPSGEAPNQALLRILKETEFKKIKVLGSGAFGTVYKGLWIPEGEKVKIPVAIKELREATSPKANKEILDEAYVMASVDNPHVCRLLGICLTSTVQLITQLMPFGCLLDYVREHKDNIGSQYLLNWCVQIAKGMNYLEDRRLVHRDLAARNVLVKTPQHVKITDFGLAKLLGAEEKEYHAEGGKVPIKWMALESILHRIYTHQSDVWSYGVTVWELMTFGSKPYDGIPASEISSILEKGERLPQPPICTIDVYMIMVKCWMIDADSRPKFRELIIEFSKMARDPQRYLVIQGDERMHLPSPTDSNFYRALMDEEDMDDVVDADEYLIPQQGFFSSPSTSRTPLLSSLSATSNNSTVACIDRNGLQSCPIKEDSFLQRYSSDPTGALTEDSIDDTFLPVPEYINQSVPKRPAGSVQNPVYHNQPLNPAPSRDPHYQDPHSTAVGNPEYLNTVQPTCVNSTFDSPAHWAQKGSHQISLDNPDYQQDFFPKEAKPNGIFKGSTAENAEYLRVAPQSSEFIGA
T2 sequence (P00533 with tags, fused parts or gaps DEL746-750/T790M limits assumed): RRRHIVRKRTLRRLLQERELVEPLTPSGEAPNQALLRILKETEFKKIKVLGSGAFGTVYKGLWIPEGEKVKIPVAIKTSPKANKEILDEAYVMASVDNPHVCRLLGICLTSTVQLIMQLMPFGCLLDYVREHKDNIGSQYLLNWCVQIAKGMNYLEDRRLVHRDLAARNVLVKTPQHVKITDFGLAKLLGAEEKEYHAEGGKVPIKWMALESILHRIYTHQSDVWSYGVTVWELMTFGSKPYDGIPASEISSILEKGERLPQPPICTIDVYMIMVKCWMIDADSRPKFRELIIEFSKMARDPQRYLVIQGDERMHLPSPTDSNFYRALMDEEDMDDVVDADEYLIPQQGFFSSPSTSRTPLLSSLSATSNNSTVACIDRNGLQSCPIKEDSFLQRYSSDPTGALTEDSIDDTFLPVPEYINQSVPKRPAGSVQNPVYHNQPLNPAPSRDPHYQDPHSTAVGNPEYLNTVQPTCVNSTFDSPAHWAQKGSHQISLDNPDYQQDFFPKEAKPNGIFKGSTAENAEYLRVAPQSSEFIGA
T3 sequence (P00533 25-1210 L858R): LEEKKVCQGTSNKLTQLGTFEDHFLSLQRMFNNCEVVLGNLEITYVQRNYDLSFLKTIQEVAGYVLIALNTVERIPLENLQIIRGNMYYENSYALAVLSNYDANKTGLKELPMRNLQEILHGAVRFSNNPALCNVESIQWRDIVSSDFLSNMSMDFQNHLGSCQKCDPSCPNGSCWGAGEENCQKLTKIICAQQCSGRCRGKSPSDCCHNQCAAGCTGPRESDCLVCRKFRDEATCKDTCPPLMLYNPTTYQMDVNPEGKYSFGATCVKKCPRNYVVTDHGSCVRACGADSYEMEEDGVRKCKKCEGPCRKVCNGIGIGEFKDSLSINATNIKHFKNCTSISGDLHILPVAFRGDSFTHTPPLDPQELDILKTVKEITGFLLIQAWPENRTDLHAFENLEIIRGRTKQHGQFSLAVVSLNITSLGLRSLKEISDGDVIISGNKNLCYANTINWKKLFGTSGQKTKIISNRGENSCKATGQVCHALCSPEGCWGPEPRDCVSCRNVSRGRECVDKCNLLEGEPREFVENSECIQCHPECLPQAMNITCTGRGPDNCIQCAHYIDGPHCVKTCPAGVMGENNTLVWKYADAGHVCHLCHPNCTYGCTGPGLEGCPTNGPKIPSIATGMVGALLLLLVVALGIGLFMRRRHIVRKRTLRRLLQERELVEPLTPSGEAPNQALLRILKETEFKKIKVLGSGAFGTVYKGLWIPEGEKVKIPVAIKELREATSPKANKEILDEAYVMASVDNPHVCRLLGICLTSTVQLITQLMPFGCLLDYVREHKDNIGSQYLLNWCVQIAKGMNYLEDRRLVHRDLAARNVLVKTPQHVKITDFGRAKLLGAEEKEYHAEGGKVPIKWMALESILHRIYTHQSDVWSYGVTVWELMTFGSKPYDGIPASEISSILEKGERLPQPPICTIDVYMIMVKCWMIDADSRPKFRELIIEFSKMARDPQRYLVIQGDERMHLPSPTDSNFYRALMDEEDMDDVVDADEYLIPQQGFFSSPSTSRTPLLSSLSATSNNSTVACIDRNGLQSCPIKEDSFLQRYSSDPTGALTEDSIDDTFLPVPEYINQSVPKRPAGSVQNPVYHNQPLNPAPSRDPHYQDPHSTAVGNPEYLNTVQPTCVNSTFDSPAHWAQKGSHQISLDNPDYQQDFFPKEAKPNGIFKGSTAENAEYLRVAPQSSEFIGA
T4 sequence (P00533 with tags, fused parts or gaps DEL746-750 limits assumed): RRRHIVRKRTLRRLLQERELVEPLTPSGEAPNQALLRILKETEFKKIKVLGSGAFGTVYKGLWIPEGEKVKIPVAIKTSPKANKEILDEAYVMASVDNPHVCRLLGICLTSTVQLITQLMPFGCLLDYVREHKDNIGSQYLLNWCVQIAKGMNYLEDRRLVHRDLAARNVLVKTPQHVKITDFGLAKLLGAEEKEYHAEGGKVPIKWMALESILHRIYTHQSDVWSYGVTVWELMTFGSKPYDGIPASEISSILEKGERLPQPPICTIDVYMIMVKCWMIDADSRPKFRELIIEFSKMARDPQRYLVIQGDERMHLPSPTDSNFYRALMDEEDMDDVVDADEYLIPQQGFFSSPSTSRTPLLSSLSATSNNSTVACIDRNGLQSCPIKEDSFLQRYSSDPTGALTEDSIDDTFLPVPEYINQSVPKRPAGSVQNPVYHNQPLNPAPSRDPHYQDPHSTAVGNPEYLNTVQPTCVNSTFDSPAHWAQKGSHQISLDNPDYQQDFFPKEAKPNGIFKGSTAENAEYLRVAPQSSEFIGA
T1 sequence (P00533 25-1210 T790M/L858R): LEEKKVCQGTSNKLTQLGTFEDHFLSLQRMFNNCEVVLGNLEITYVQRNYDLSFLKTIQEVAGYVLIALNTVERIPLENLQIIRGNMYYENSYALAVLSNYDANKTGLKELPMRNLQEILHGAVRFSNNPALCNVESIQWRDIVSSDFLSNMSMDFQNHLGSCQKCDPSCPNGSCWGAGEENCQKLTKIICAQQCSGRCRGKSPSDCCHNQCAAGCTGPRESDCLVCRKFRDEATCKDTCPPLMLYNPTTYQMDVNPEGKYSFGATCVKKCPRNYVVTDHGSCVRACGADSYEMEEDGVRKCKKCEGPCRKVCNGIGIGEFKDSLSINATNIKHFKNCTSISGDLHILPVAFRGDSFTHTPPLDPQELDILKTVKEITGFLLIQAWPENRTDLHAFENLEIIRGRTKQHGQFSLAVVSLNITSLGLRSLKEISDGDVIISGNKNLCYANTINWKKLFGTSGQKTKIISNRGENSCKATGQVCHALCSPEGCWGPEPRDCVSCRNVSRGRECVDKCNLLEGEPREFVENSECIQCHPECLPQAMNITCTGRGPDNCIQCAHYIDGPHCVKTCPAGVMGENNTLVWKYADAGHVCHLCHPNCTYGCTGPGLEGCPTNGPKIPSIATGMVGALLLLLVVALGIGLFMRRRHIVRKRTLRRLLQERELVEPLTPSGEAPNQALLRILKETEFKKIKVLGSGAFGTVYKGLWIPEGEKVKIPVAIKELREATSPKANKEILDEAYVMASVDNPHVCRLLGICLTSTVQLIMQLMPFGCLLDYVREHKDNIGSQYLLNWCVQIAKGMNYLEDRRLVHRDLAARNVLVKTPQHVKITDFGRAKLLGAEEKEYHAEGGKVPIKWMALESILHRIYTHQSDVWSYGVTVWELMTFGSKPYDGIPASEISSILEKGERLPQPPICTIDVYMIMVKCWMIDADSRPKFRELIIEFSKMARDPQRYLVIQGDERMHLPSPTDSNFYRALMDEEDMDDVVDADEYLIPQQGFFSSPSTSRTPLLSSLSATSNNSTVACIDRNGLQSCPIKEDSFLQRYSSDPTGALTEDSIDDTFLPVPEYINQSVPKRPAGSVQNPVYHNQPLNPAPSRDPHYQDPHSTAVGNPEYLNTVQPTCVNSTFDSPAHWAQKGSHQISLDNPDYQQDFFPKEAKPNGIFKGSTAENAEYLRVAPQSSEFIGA

Row | Compound | IC50 (EGFR (T790M/L858R)) [nM] | IC50 (EGFR (d746-750/T790M)) [nM] | IC50 (EGFR (L858R)) [nM] | IC50 (EGFR (d746-750)) [nM] | IC50 (EGFR (WT)) [nM] | GI50 [1] [nM] | GI50 [2] [nM] | GI50 [3] [nM]
1 | C=C1c2c(-c3cnc4ccccc4c3)c3c(N)ncnc3n2C[C@H]1NC(=O)/C=C/CN(C)C [Example 4, (S,E)-N-(4-amino-6-methylene-5-(quinolin-3-yl)-7,8-dihydro-6H-pyrimido[5,4-b]pyrrolizin-7-yl)-4-(dimethylamino)but-2-enamide] | 0.4 | < 0.5 | 0.63 | 0.45 | 6 | 140 | 5.5 | 2400
2 | C=C1c2c(-c3cnc4ccccc4c3)c3c(N)ncnc3n2C[C@H]1NC(=O)/C=C/Cl [Example 5, (S,E)-N-(4-amino-6-methylene-5-(quinolin-3-yl)-7,8-dihydro-6H-pyrimido[5,4-b]pyrrolizin-7-yl)-3-chloroacrylamide] | < 0.15 | < 0.15 | < 0.15 | < 0.15 | 0.78 | 51 | 8.1 | 2200
3 | C=C1c2c(-c3cnc4ccccc4c3)c3c(N)ncnc3n2C[C@H]1NC(=O)/C=C/CN1CCCCC1 [Example 7, (S,E)-N-(4-amino-6-methylene-5-(quinolin-3-yl)-7,8-dihydro-6H-pyrimido[5,4-b]pyrrolizin-7-yl)-4-(piperidin-1-yl)but-2-enamide] | 1 | 0.53 | 1.7 | 1.2 | 12 | 150 | 5.6 | 2600
4 | C=C1c2c(-c3cnc4ccccc4c3)c3c(N)ncnc3n2C[C@H]1NC(=O)/C=C/CN(CC)CC [Example 10, (S,E)-N-(4-amino-6-methylene-5-(quinolin-3-yl)-7,8-dihydro-6H-pyrimido[5,4-b]pyrrolizin-7-yl)-4-(diethylamino)but-2-enamide] | 1.5 | 0.61 | 2.6 | 1.8 | 22 | 310 | 8.1 | 4400
5 | C=C1c2c(-c3cnc4ccccc4c3)c3c(N)ncnc3n2C[C@H]1NC(=O)/C=C/CN(C)CC [Example 11, (S,E)-N-(4-amino-6-methylene-5-(quinolin-3-yl)-7,8-dihydro-6H-pyrimido[5,4-b]pyrrolizin-7-yl)-4-(ethyl(methyl)amino)but-2-enamide] | 0.76 | 0.32 | 1.4 | 0.88 | 12 | 260 | 9.7 | 3900

Further lines, results first:

Row | IC50 (EGFR (T790M/L858R)) [nM] | IC50 (EGFR (d746-750/T790M)) [nM] | IC50 (EGFR (L858R)) [nM] | IC50 (EGFR (d746-750)) [nM] | IC50 (EGFR (WT)) [nM] | GI50 [1] [nM] | GI50 [2] [nM] | GI50 [3] [nM] | Compound
6 | 0.24 | < 0.15 | 0.45 | 0.24 | 4.9 | 54 | 3.3 | 520 | C=C1c2c(-c3cnc4ccccc4c3)c3c(N)ncnc3n2C[C@H]1NC(=O)/C=C\Cl [Example 6, (S,Z)—N-(4-amino-6-methylene-5-(quinolin-3-yl)-7,8-dihydro-6H-pyrimido[5,4-b]pyrrolizin-7-yl)-3-chloroacrylamide]
7 | < 0.5 | < 0.15 | < 0.5 | < 0.15 | 1 | 800 | 66 | 1100 | C#CC(=O)N[C@@H]1Cn2c(c(-c3cnc4ccccc4c3)c3c(N)ncnc32)C1=C [Example 8, (S)—N-(4-amino-6-methylene-5-(quinolin-3-yl)-7,8-dihydro-6H-pyrimido[5,4-b]pyrrolizin-7-yl)propiolamide]
8 | 2.1 | 0.45 | 5.9 | 2.3 | 52 | 770 | 7.5 | 4200 | C=C1c2c(-c3cnc4ccccc4c3)c3c(N)ncnc3n2C[C@H]1NC(=O)C#CC [Example 9, (S)—N-(4-amino-6-methylene-5-(quinolin-3-yl)-7,8-dihydro-6H-pyrimido[5,4-b]pyrrolizin-7-yl)but-2-ynamide]
